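Five compound concentrations were applied to cells in 96-well plates for 48 hours; endpoints were derived by simple linear interpolation of the resulting dose-response curve. GI50 is the concentration that inhibits growth by half. The concentration for full growth arrest is given as TGI.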
Key:
Test in all cases: NCI tumour cell line growth inhibition, 48 h
COLO 205 colon = test system: COLO 205 colon
SR leukemia = test system: SR leukemia
MCF7 breast = test system: MCF7 breast
OVCAR-3 ovarian = test system: OVCAR-3 ovarian
OVCAR-4 ovarian = test system: OVCAR-4 ovarian
SK-MEL-28 melanoma = test system: SK-MEL-28 melanoma
MDA-MB-468 breast = test system: MDA-MB-468 breast
SF-539 CNS = test system: SF-539 CNS
HOP-92 NSCLC = test system: HOP-92 NSCLC
HCC-2998 colon = test system: HCC-2998 colon
TK-10 renal = test system: TK-10 renal
RXF 393 renal = test system: RXF 393 renal
CAKI-1 renal = test system: CAKI-1 renal
BT-549 breast = test system: BT-549 breast
HS 578T breast = test system: HS 578T breast
DU-145 prostate = test system: DU-145 prostate
SK-OV-3 ovarian = test system: SK-OV-3 ovarian
M14 melanoma = test system: M14 melanoma
NCI/ADR-RES ovarian = test system: NCI/ADR-RES ovarian
T-47D breast = test system: T-47D breast
NCI-H522 lung = test system: NCI-H522 lung
MDA-MB-435 = test system: MDA-MB-435
HOP-62 NSCLC = test system: HOP-62 NSCLC
HCT-15 colon = test system: HCT-15 colon
MALME-3M melanoma = test system: MALME-3M melanoma
UACC-257 melanoma = test system: UACC-257 melanoma
MOLT-4 leukemia = test system: MOLT-4 leukemia
NCI-H460 lung = test system: NCI-H460 lung
CCRF-CEM leukemia = test system: CCRF-CEM leukemia
HCT-116 colon = test system: HCT-116 colon
SNB-19 CNS = test system: SNB-19 CNS
ACHN renal = test system: ACHN renal
SN12C renal = test system: SN12C renal
UACC-62 melanoma = test system: UACC-62 melanoma
KM12 colon = test system: KM12 colon
OVCAR-8 ovarian = test system: OVCAR-8 ovarian
RPMI-8226 leukemia = test system: RPMI-8226 leukemia
LOX IMVI melanoma = test system: LOX IMVI melanoma
EKVX NSCLC = test system: EKVX NSCLC
786-0 renal = test system: 786-0 renal
SW-620 colon = test system: SW-620 colon
K-562 leukemia = test system: K-562 leukemia
NCI-H23 lung = test system: NCI-H23 lung
HT29 colon = test system: HT29 colon
SK-MEL-5 melanoma = test system: SK-MEL-5 melanoma
OVCAR-5 ovarian = test system: OVCAR-5 ovarian
SF-268 CNS = test system: SF-268 CNS
HL-60(TB) leukemia = test system: HL-60(TB) leukemia
IGROV1 ovarian = test system: IGROV1 ovarian

Compound: COc1cc2cc(C(=O)N3C[C@@H](CCl)c4c3cc(OC(=O)N3CCN(C)[C@@H]5CSSC[C@H]53)c3ccccc43)[nH]c2c(OC)c1OC
- GI50 (COLO 205 colon): 49.2 nM
- TGI (COLO 205 colon): 176 nM
- GI50 (SR leukemia): < 7.85 nM
- TGI (SR leukemia): 61.3 nM
- GI50 (MCF7 breast): < 7.85 nM
- TGI (MCF7 breast): 178 nM
- GI50 (OVCAR-3 ovarian): 52.7 nM
- TGI (OVCAR-3 ovarian): 578 nM
- GI50 (OVCAR-4 ovarian): 160 nM
- TGI (OVCAR-4 ovarian): 799 nM
- GI50 (SK-MEL-28 melanoma): 14.5 nM
- TGI (SK-MEL-28 melanoma): 31 nM
- GI50 (MDA-MB-468 breast): 11.5 nM
- TGI (MDA-MB-468 breast): 30.8 nM
- GI50 (SF-539 CNS): 9.97 nM
- TGI (SF-539 CNS): 29.3 nM
- GI50 (HOP-92 NSCLC): 26.7 nM
- TGI (HOP-92 NSCLC): 824 nM
- GI50 (HCC-2998 colon): 15.4 nM
- TGI (HCC-2998 colon): 37.8 nM
- GI50 (TK-10 renal): 127 nM
- TGI (TK-10 renal): 2400 nM
- GI50 (RXF 393 renal): 9.53 nM
- TGI (RXF 393 renal): 20.1 nM
- GI50 (CAKI-1 renal): 27.3 nM
- TGI (CAKI-1 renal): 586 nM
- GI50 (BT-549 breast): 15.4 nM
- TGI (BT-549 breast): 55.9 nM
- GI50 (HS 578T breast): 159 nM
- TGI (HS 578T breast): 668 nM
- GI50 (DU-145 prostate): < 7.85 nM
- TGI (DU-145 prostate): 9010 nM
- GI50 (SK-OV-3 ovarian): 12.4 nM
- TGI (SK-OV-3 ovarian): 44.3 nM
- GI50 (M14 melanoma): 10.5 nM
- TGI (M14 melanoma): 26.2 nM
- GI50 (NCI/ADR-RES ovarian): 11.1 nM
- TGI (NCI/ADR-RES ovarian): 52.8 nM
- GI50 (T-47D breast): 50.2 nM
- TGI (T-47D breast): 553 nM
- GI50 (NCI-H522 lung): 12.4 nM
- TGI (NCI-H522 lung): 48 nM
- GI50 (MDA-MB-435): 27.4 nM
- TGI (MDA-MB-435): 138 nM
- GI50 (HOP-62 NSCLC): 12.3 nM
- TGI (HOP-62 NSCLC): 65.4 nM
- GI50 (HCT-15 colon): 21.8 nM
- TGI (HCT-15 colon): 554 nM
- GI50 (MALME-3M melanoma): 13.7 nM
- TGI (MALME-3M melanoma): 33.3 nM
- GI50 (UACC-257 melanoma): 23.9 nM
- TGI (UACC-257 melanoma): 78.4 nM
- GI50 (MOLT-4 leukemia): < 7.85 nM
- TGI (MOLT-4 leukemia): 215 nM
- GI50 (NCI-H460 lung): < 7.85 nM
- TGI (NCI-H460 lung): 791 nM
- GI50 (CCRF-CEM leukemia): 26.3 nM
- TGI (CCRF-CEM leukemia): 2000 nM
- GI50 (HCT-116 colon): 18.1 nM
- TGI (HCT-116 colon): 8510 nM
- GI50 (SNB-19 CNS): 16.4 nM
- TGI (SNB-19 CNS): 1090 nM
- GI50 (ACHN renal): < 7.85 nM
- TGI (ACHN renal): 29.3 nM
- GI50 (SN12C renal): 17.1 nM
- TGI (SN12C renal): 831 nM
- GI50 (UACC-62 melanoma): 15.1 nM
- TGI (UACC-62 melanoma): 87.9 nM
- GI50 (KM12 colon): 43.7 nM
- TGI (KM12 colon): 3640 nM
- GI50 (OVCAR-8 ovarian): 8.62 nM
- TGI (OVCAR-8 ovarian): 68 nM
- GI50 (RPMI-8226 leukemia): 33.9 nM
- TGI (RPMI-8226 leukemia): 458 nM
- GI50 (LOX IMVI melanoma): 12.2 nM
- TGI (LOX IMVI melanoma): 43.5 nM
- GI50 (EKVX NSCLC): 18.2 nM
- TGI (EKVX NSCLC): 133 nM
- GI50 (786-0 renal): 16.3 nM
- TGI (786-0 renal): 69.3 nM
- GI50 (SW-620 colon): 58.1 nM
- TGI (SW-620 colon): 78500 nM
- GI50 (K-562 leukemia): 24.6 nM
- TGI (K-562 leukemia): 78500 nM
- GI50 (NCI-H23 lung): < 7.85 nM
- TGI (NCI-H23 lung): 13.8 nM
- GI50 (HT29 colon): 34.1 nM
- TGI (HT29 colon): 876 nM
- GI50 (SK-MEL-5 melanoma): 13.2 nM
- TGI (SK-MEL-5 melanoma): 24.2 nM
- GI50 (OVCAR-5 ovarian): 36.3 nM
- TGI (OVCAR-5 ovarian): 380 nM
- GI50 (SF-268 CNS): 14.8 nM
- TGI (SF-268 CNS): 1350 nM
- GI50 (HL-60(TB) leukemia): < 7.85 nM
- TGI (HL-60(TB) leukemia): 110 nM
- GI50 (IGROV1 ovarian): 58.4 nM
- TGI (IGROV1 ovarian): 266 nM
